The values that follow come from publication PMC3909100, “Biochemical, Stabilization and Crystallization Studies on a Molecular Chaperone (PaoD) Involved in the Maturation of Molybdoenzymes” (PLoS ONE, 2014).

Data set [1] concerns the target T1, PaoD (Escherichia coli, UniProt P77183).
T1 construct: full length, expressed from plasmid pMN87 in E. coli BL21(DE3), Ni-TED purified (tag not described); dimer in solution
T1 sequence (P77183 1-318): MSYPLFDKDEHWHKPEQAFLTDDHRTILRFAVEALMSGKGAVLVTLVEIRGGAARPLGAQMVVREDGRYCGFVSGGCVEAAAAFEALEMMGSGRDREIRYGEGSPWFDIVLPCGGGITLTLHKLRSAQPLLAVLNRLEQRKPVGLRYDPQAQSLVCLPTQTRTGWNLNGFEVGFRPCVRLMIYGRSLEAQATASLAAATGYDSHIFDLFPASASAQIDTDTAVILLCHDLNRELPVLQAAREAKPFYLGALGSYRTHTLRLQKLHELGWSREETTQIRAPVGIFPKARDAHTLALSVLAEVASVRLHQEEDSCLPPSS
Nature of the data set: ultrafiltration, bound cofactor oxidized to Form A, HPLC fluorescence. Type of data set: binding. Particulars: 12 µM PaoD, 0-48 µM cofactor, 100 mM Tris-HCl, 300 mM NaCl, pH 7.2, 277 K.

In data set [2] the target is T1, PaoD. As to the kind of experiment: STD-NMR. Type of data set: binding. The settings on record: ca 30 µM PaoD, 3 mM ionic liquid, 50 mM Tris-HCl, 1 mM EDTA, 300 mM NaCl, pH 8.0, 310 K; signals from cation ring protons; weak surface interaction.
Data set [3] deals with the molecule itself. As to the kind of experiment: SEC; freshly purified PaoD on Superdex 75 HR10/30, 50 mM Tris-HCl, 300 mM NaCl, pH 8.0, 283 K, 0.5 mL/min; column calibrated with Bio-Rad standards.

“And” between values parts separate entries of the source, which are not always exact repeats. Equal entries are not always repeated.

For the molecule `Nc1nc2c(c(=O)[nH]1)N[C@H]1C(S)=C(S)[C@@H](COP(=O)(O)O)O[C@H]1N2` [MPT], the “ultrafiltration, bound cofactor oxidized to Form A, HPLC fluorescence” value at PaoD [1] was “The obtained chromatograms showed that Mo-MPT and MPT was bound to PaoD”.
In the case of `C[n+]1ccn(CCO)c1` [[C2OHmim]PF6], the STD-NMR entry on PaoD [2] is “aromatic protons of the cation were detected both for [C2OHmim]PF6 and [C4mim]Cl”.
Still for that read-out and setting: as for `CCCC[n+]1ccn(C)c1` [[C4mim]Cl], the entry is “aromatic protons of the cation were detected both for [C2OHmim]PF6 and [C4mim]Cl”.

B1: PaoD (natural protein, Escherichia coli, UniProt P77183 1-318, looked up)
chain: MSYPLFDKDEHWHKPEQAFLTDDHRTILRFAVEALMSGKGAVLVTLVEIRGGAARPLGAQMVVREDGRYCGFVSGGCVEAAAAFEALEMMGSGRDREIRYGEGSPWFDIVLPCGGGITLTLHKLRSAQPLLAVLNRLEQRKPVGLRYDPQAQSLVCLPTQTRTGWNLNGFEVGFRPCVRLMIYGRSLEAQATASLAAATGYDSHIFDLFPASASAQIDTDTAVILLCHDLNRELPVLQAAREAKPFYLGALGSYRTHTLRLQKLHELGWSREETTQIRAPVGIFPKARDAHTLALSVLAEVASVRLHQEEDSCLPPSS
notes: PaoD, XdhC-like molecular chaperone of the periplasmic aldehyde oxidoreductase PaoABC, last gene of the paoABCD operon of Escherichia coli; calculated mass 34.8 kDa; the tag is inferred from the Ni-TED column and imidazole elution; also called molecular chaperone PaoD; E. coli PaoD; source: E. coli BL21(DE3), plasmid pMN87, purified (Ni-TED chromatography)
With B1, the “stoichiometry N” value in data set [3] is 2 and 4.

In general, stoichiometry N refers to the number of molecules, sites or subunits per partner or assembly.
